Laboratory results: patent US20040225014A1, “Method for treating ocular hypertension and glaucoma” (SUCAMPO AG, priority 2003, published 2004)
Where two headings read alike, the source gives them in different places.

Columns and labels:
[1] = system: Male C3H/HeN mice; conditions: mouse, in vivo
Source text: (§1) Male C3H/HeN mice of 7 weeks old (seven groups; three mice/group) were used. Following 1-week acclimation, hair on the back of mice was shaved. Two days after the shaving, applications of test compound (13,14-dihydro-15-keto-17-phenyl-18,19,20-trinor-PGF2α isopropyl ester), latanoprost(13,14-dihydro-17-phenyl-18,19,20-trinor-PGF2α isopropyl ester), and vehicle (70 w/w % EtOH) were initiated (Day 1). 0.005%, 0.01% or 0.03% of test compound, 0.005%, 0.01% or 0.03% of latanoprost, or vehicle were applied to the shaved area of the mice at a volume of 0.1 mL once daily for 30 days. The hair growth was scored according to the following criteria.
−: No hair growth observed
(§2) ±: Hair growth observed; less than 10% of shaving area
(§3) +: Hair growth observed; 10-30% of shaving area
(§4) ++: Hair growth observed; 30-50% of shaving area
(§5) +++: Hair growth observed; more than 50% of shaving area

[2] = system: eyelashes; conditions: marketed eye drops for ocular hypertension and glaucoma; cited from earlier work
[3] = system: Male C3H/HeN mice; assay: Hair growth scoring after once daily topical application to the shaved back of mice for 30 days; conditions: for Scores of hair growth: 0.1 mL once daily on shaved area, individual animals
Source text: as §1
−: No hair growth observed
as §2, §3, §4, §5

## CC(C)OC(=O)CCC/C=C\C[C@@H]1[C@@H](CC[C@@H](O)CCc2ccccc2)[C@H](O)C[C@@H]1O [Latanoprost, 13,14-dihydro-17-phenyl-18,19,20-trinor-PGF2α isopropyl ester]
[1]
  Effect on the hair growth (summary in words): remarkable hair growth stimulation
  Scores of hair growth: −
[2]
  Eyelash hair growth (side effect of eye drops): induce eyelash hair growth

## CCCCCCCC(=O)CC[C@@H]1[C@@H](C/C=C\CCCC(=O)OC(C)C)[C@@H](O)C[C@H]1O [Rescula®, 13,14-dihydro-15-keto-20-ethyl-PGF2α isopropylester]
[2]
  Eyelash hair growth (side effect of eye drops): increases length of eyelashes

## CC(C)OC(=O)CCC/C=C\C[C@@H]1[C@@H](CCC(=O)CCc2ccccc2)[C@H](O)C[C@@H]1O [Test compound, 13,14-dihydro-15-keto-17-phenyl-18,19,20-trinor-PGF2α isopropyl ester]
[3]; 0.005%, 19 days after first application
  Scores of hair growth: −
[3]; 0.005%, 22 days after first application
  Scores of hair growth: −
[3]; 0.005%, 23 days after first application
  Scores of hair growth: −
[3]; 0.005%, 24 days after first application
  Scores of hair growth: −
[3]; 0.005%, 25 days after first application
  Scores of hair growth: −
[3]; 0.005%, 26 days after first application
  Scores of hair growth: −
[3]; 0.005%, 29 days after first application
  Scores of hair growth: −
[3]; 0.005%, 30 days after first application
  Scores of hair growth: −
[3]; 0.01%, 19 days after first application
  Scores of hair growth: −
[3]; 0.01%, 22 days after first application
  Scores of hair growth: −
[3]; 0.01%, 23 days after first application
  Scores of hair growth: −
[3]; 0.01%, 24 days after first application
  Scores of hair growth: −
[3]; 0.01%, 25 days after first application
  Scores of hair growth: −
[3]; 0.01%, 26 days after first application
  Scores of hair growth: −
[3]; 0.01%, 29 days after first application
  Scores of hair growth: −
[3]; 0.01%, 30 days after first application
  Scores of hair growth: −
[3]; 0.03%, 19 days after first application
  Scores of hair growth: −
[3]; 0.03%, 22 days after first application
  Scores of hair growth: −
[3]; 0.03%, 23 days after first application
  Scores of hair growth: −
[3]; 0.03%, 24 days after first application
  Scores of hair growth: −
[3]; 0.03%, 25 days after first application
  Scores of hair growth: −
[3]; 0.03%, 26 days after first application
  Scores of hair growth: −
[3]; 0.03%, 29 days after first application
  Scores of hair growth: −
[3]; 0.03%, 30 days after first application
  Scores of hair growth: −
[3]; any concentration tested (0.005%, 0.01%, 0.03%), once daily for 30 days
  Effect on the hair growth (summary in words): no effects on the hair growth

## CCNC(=O)CCC/C=C\C[C@@H]1[C@@H](/C=C/[C@@H](O)CCc2ccccc2)[C@H](O)C[C@@H]1O [bimatoprost, 17-phenyl 18,19,20-trinor PGF2α-N-ethylamide]
[2]
  Eyelash hair growth (side effect of eye drops): induce eyelash hair growth

## CC(C)OC(=O)CCC/C=C\C[C@@H]1[C@@H](/C=C/[C@@H](O)COc2cccc(C(F)(F)F)c2)[C@H](O)C[C@@H]1O [travoprost, 16-(3-trifluoromethylphenoxy)-17,18,19,20-tetranor PGF2α isopropyl ester]
[2]
  Eyelash hair growth (side effect of eye drops): induce eyelash hair growth
